# In patent US8992982B2, “Formulation of indomethacin” (Iceutica Pty Ltd., priority 2009, dated 2015):
# Tests used:
# Type in all cases: in vivo, human
# [1] = tested on: pain after surgical removal of impacted third molars; test: Phase 2 dental pain study: 2-stopwatch method (time to onset of analgesia, first perceptible and meaningful pain relief); conditions: ITT
# Protocol: (§1) Subjects assessed their baseline pain intensity (VAS) before receiving study drug (predose, Time 0) and their pain intensity (VAS) and pain relief (5-point categorical scale) at 15, 30, and 45 minutes and 1, 1.5, 2, 3, 4, 5, 6, 7, and 8 hours after Time 0 and immediately before the first dose of rescue medication. The 2-stopwatch method was used to record the time to perceptible and time to meaningful pain relief, respectively. Acetaminophen (1000 mg) was permitted as the initial rescue medication. Subjects were encouraged to wait at least 60 minutes after receiving study drug before taking rescue medication. […] Other restrictions included the following: no alcohol use from 24 hours before surgery until discharge on Day 1; nothing by mouth (NPO) from midnight before surgery until 1 hour after surgery; clear liquids only from 1 hour after surgery until 1 hour after dosing; and advancement of diet 1 hour after dosing according to standard practice.
# (§2) The secondary efficacy endpoints were as follows: • TOTPAR over 0 to 4 hours (TOTPAR-4) after Time 0 • Visual Analogue Scale (VAS) pain intensity difference (VASPID) at each scheduled time point after Time 0 • Time to onset of analgesia (measured as time to perceptible pain relief confirmed by meaningful pain relief) • VAS pain intensity score at each scheduled time point • VAS summed pain intensity difference (VASSPID) over 0 to 4 hours (VASSPID-4) and over 0 to 8 hours (VASSPID-8) after Time 0 • Pain relief score at each scheduled time point after Time 0 • Peak pain relief • Time to peak pain relief • Time to first perceptible pain relief • Time to meaningful pain relief • Proportion of subjects using rescue medication • Time to first use of rescue medication (duration of analgesia) • Patient's global evaluation of study drug Safety:
# (§3) For each time-to-event endpoint, the Kaplan-Meier method was used to evaluate the treatment effect. Time to onset of analgesia (measured as time to perceptible pain relief confirmed by meaningful pain relief) was based on data collected using the 2-stopwatch method. […] A summary table provided the number of subjects analyzed, the number of subjects censored, estimates for the quartiles, and 95% confidence intervals (CIs) for the estimated median. P values from log-rank tests were also used to examine treatment effect. Cox proportional hazard models were used to explore potential covariates such as sex, baseline pain intensity, and surgical trauma rating, if appropriate.
# [2] = tested on: pain after surgical removal of impacted third molars; test: Phase 2 dental pain study: use of rescue medication (proportion of subjects, time to first use); conditions: 400 mg
# Protocol: as §1, §2, §3
# For the proportion of subjects using rescue medication, a logistic regression model that adjusted for baseline pain intensity was used to evaluate the treatment effect. Subgroup analysis by sex was performed if sex was confirmed to be a statistically significant covariate for TOTPAR-8. Baseline values were defined as the last measurements taken before dosing with a study drug.
# [3] = Phase 2 dental pain study: safety (TEAEs, vital signs); conditions: Safety population
# Protocol: Efficacy was assessed during the 8 hours after Time 0. Safety was assessed by the incidence of treatment-emergent AEs (TEAEs) and changes in vital sign measurements.
# The safety endpoints were the incidence of TEAEs and changes in vital sign measurements.
# Protocol-specified safety data were provided in by-subject listings. The Medical Dictionary for Regulatory Activities (MedDRA) (version 11.0) was used to classify all AEs with respect to system organ class and preferred term. Adverse event summaries included only TEAEs, which were summarized by incidence, severity, and relationship to study drug for each treatment group. The Cochran-Mantel-Haenszel test was used to compare the rates of occurrence between the placebo and Indomethacin Nanoformulation Capsule groups for all TEAEs. A list of AEs leading to study discontinuation, along with the summaries described above, was also provided.
# Vital sign measurements were summarized using descriptive statistics (mean, standard deviation [SD], median, minimum, and maximum) at each scheduled time point for each treatment group. Changes from Baseline for vital signs were calculated for each subject and summarized for each treatment group at each scheduled time point after Baseline. No formal statistical tests were performed.
compound,measurement,setting,value
Cc1ccc(-c2cc(C(F)(F)F)nn2-c2ccc(S(N)(=O)=O)cc2)cc1 [Celecoxib],"Hazard ratio vs placebo, Cox proportional hazards model (time to first perceptible pain relief)",[1]; 400 mg,1.7
same,"Hazard ratio vs placebo, Cox proportional hazards model (time to meaningful pain relief)",[1]; 400 mg,3.2
same,"Time to first perceptible pain relief: subjects analyzed, %",[1]; 400 mg,(92.2) %
same,"Time to first perceptible pain relief: subjects censored, %",[1]; 400 mg,(7.8) %
same,"Time to meaningful pain relief: subjects analyzed, %",[1]; 400 mg,(68.6) %
same,"Time to meaningful pain relief: subjects analyzed, n",[1]; 400 mg,35
same,"Time to meaningful pain relief: subjects censored, %",[1]; 400 mg,(31.4) %
same,"Time to meaningful pain relief: subjects censored, n",[1]; 400 mg,16
same,"Time to onset of analgesia, Hazard ratio","[1]; Cox proportional hazards model, vs placebo",4.4
same,Time to onset of analgesia: subjects analyzed,[1],(68.6) %
same,"Time to first perceptible pain relief, Mean","[1]; Kaplan-Meier estimate, 400 mg",0.9 h
same,"Time to first perceptible pain relief, Q25","[1]; Kaplan-Meier estimate, 400 mg",0.35 h
same,"Time to first perceptible pain relief, Q50","[1]; Kaplan-Meier estimate, 400 mg",0.60 h
same,"Time to first perceptible pain relief, Q75","[1]; Kaplan-Meier estimate, 400 mg",0.97 h
same,"Time to meaningful pain relief, Mean","[1]; Kaplan-Meier estimate, 400 mg",2.6 h
same,"Time to meaningful pain relief, Q25","[1]; Kaplan-Meier estimate, 400 mg",0.75 h
same,"Time to meaningful pain relief, Q50","[1]; Kaplan-Meier estimate, 400 mg",1.33 h
same,"Time to meaningful pain relief, Q75","[1]; Kaplan-Meier estimate, 400 mg",4.27 h
same,"Time to onset of analgesia, Mean",[1]; Kaplan-Meier estimate,0.9 h
same,"Time to onset of analgesia, Q25",[1]; Kaplan-Meier estimate,0.38 h
same,"Time to onset of analgesia, Q50",[1]; Kaplan-Meier estimate,0.72 h
same,Time to onset of analgesia: subjects censored,[1]; right-censored at 8 hours,(31.4) %
same,"Hazard ratio vs placebo, Cox proportional hazards model (time to first use of rescue medication)",[2],0.2
same,"Time to first use of rescue medication: subjects analyzed, %",[2],(41.2) %
same,"Time to first use of rescue medication: subjects censored, %",[2],(58.8) %
same,"Time to first use of rescue medication, Mean",[2]; Kaplan-Meier estimate,4.7 h
same,"Time to first use of rescue medication, Q25",[2]; Kaplan-Meier estimate,3.30 h
same,Subjects with ≧1 severe TEAE,[3],(5.9) %
same,Subjects with ≧1 treatment-related TEAE,[3],(2.0) %
same,Subjects who died,[3]; n,0
same,Subjects who discontinued due to a TEAE,[3]; n,0
same,Subjects with ≧1 SAE,[3]; n,0
